For the assay, the system named is HCT116 colorectal cancer cells. Kind of assay: Cisplatin sensitization assay (96 h cell viability MTS).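 Note: compound concentration needed to lower the Cisplatin-alone IC50 by a set fold.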 It counts as cell-based. The following applies: 96 h MTS, compound plus Cisplatin. The method, boiled down:
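Cisplatin and compound are dosed at the same time, both serially diluted 2-fold from 10 μM final across a full matrix. Plates sit at 37° C in 5% CO2 for 96 h before MTS addition.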
`CN1CCC(NC(=O)C2CCN(c3c(F)cncc3NC(=O)c3c(N)nn4cc(F)cnc34)CC2)C1` (centres unmarked) [I-G-24, 2-amino-6-fluoro-N-(5-fluoro-4-(4-((1-methylpyrrolidin-3-yl)carbamoyl)piperidin-1-yl)pyridin-3-yl)pyrazolo[1,5-a]pyrimidine-3-carboxamide]: the “Cisplatin Sensitization Assay” value is “+++ (Compounds with a Cisplatin sensitization value of <0.02 μM are marked with “+++.”)”. On to `CN1CCN(C(=O)C2(C#N)CCN(c3c(F)cncc3NC(=O)c3c(N)nn4cc(F)cnc34)CC2)CC1` [I-G-25, 2-amino-N-(4-(4-cyano-4-(4-methylpiperazine-1-carbonyl)piperidin-1-yl)-5-fluoropyridin-3-yl)-6-fluoropyrazolo[1,5-a]pyrimidine-3-carboxamide], for which the “Cisplatin Sensitization Assay” value was “+++ (Compounds with a Cisplatin sensitization value of <0.02 μM are marked with “+++.”)”. Take `CN(C)CCCNC(=O)C1CCN(c2c(F)cncc2NC(=O)c2c(N)nn3cc(F)cnc23)CC1` [I-G-26, 2-amino-N-(4-(4-((3-(dimethylamino)propyl)carbamoyl)piperidin-1-yl)-5-fluoropyridin-3-yl)-6-fluoropyrazolo[1,5-a]pyrimidine-3-carboxamide]: the “Cisplatin Sensitization Assay” value was “++ (Compounds with a Cisplatin sensitization value >0.02 μM but <0.2 μM are marked with “++.”)”. As for `CC1(C)CN(C(=O)C2CCN(c3c(F)cncc3NC(=O)c3c(N)nn4cc(F)cnc34)CC2)CCN1` [I-G-27, 2-amino-N-(4-(4-(3,3-dimethylpiperazine-1-carbonyl)piperidin-1-yl)-5-fluoropyridin-3-yl)-6-fluoropyrazolo[1,5-a]pyrimidine-3-carboxamide], the entry is “++ (Compounds with a Cisplatin sensitization value >0.02 μM but <0.2 μM are marked with “++.”)”; as for `Nc1nn2cc(F)cnc2c1C(=O)Nc1cncc(F)c1N1CCC(C(=O)N2CCNC3(CC3)C2)CC1` [I-G-28, N-(4-(4-(4,7-diazaspiro[2.5]octane-7-carbonyl)piperidin-1-yl)-5-fluoropyridin-3-yl)-2-amino-6-fluoropyrazolo[1,5-a]pyrimidine-3-carboxamide], “+++ (Compounds with a Cisplatin sensitization value of <0.02 μM are marked with “+++.”)”. In the case of `CN(C)C(=O)C1CCN(c2c(F)cncc2NC(=O)c2c(N)nn3cc(F)cnc23)CC1` [I-G-29, 2-amino-N-(4-(4-(dimethylcarbamoyl)piperidin-1-yl)-5-fluoropyridin-3-yl)-6-fluoropyrazolo[1,5-a]pyrimidine-3-carboxamide] it was “+++ (Compounds with a Cisplatin sensitization value of <0.02 μM are marked with “+++.”)”.

With `CN(C)CCNC(=O)C1CCN(c2c(F)cncc2NC(=O)c2c(N)nn3cc(F)cnc23)CC1` [I-G-30, 2-amino-N-(4-(4-((2-(dimethylamino)ethyl)carbamoyl)piperidin-1-yl)-5-fluoropyridin-3-yl)-6-fluoropyrazolo[1,5-a]pyrimidine-3-carboxamide], the “Cisplatin Sensitization Assay” value is recorded as “+++ (Compounds with a Cisplatin sensitization value of <0.02 μM are marked with “+++.”)”.

Regarding `CN(C)CCN(C)C(=O)C1CCN(c2c(F)cncc2NC(=O)c2c(N)nn3cc(F)cnc23)CC1` [I-G-31, 2-amino-N-(4-(4-((2-(dimethylamino)ethyl)(methyl)carbamoyl)piperidin-1-yl)-5-fluoropyridin-3-yl)-6-fluoropyrazolo[1,5-a]pyrimidine-3-carboxamide], the “Cisplatin Sensitization Assay” value is “+++ (Compounds with a Cisplatin sensitization value of <0.02 μM are marked with “+++.”)”. As for `Nc1nn2cc(F)cnc2c1C(=O)Nc1cncc(F)c1N1CCC(C(=O)N2CCN(C3COC3)CC2)CC1` [I-G-32, 2-amino-6-fluoro-N-[5-fluoro-4-[4-[4-(oxetan-3-yl)piperazine-1-carbonyl]-1-piperidyl]-3-pyridyl]pyrazolo[1,5-a]pyrimidine-3-carboxamide], the “Cisplatin Sensitization Assay” value is “+++ (Compounds with a Cisplatin sensitization value of <0.02 μM are marked with “+++.”)”. In the case of `CNC(=O)C1CCN(c2c(F)cncc2NC(=O)c2c(N)nn3cc(F)cnc23)CC1` [I-G-33, 2-amino-6-fluoro-N-(5-fluoro-4-(4-(methylcarbamoyl)piperidin-1-yl)pyridin-3-yl)pyrazolo[1,5-a]pyrimidine-3-carboxamide] it was “+++ (Compounds with a Cisplatin sensitization value of <0.02 μM are marked with “+++.”)”. As for `CNC1CN(C(=O)C2CCN(c3c(F)cncc3NC(=O)c3c(N)nn4cc(F)cnc34)CC2)C1` [I-G-34, 2-amino-6-fluoro-N-(5-fluoro-4-(4-(3-(methylamino)azetidine-1-carbonyl)piperidin-1-yl)pyridin-3-yl)pyrazolo[1,5-a]pyrimidine-3-carboxamide], the entry is “+++ (Compounds with a Cisplatin sensitization value of <0.02 μM are marked with “+++.”)”; as for `Nc1nn2cc(F)cnc2c1C(=O)Nc1cncc(F)c1N1CCC(C(=O)N2CCN(C3CCC3)CC2)CC1` [I-G-35, 2-amino-N-(4-(4-(4-cyclobutylpiperazine-1-carbonyl)piperidin-1-yl)-5-fluoropyridin-3-yl)-6-fluoropyrazolo[1,5-a]pyrimidine-3-carboxamide], “+++ (Compounds with a Cisplatin sensitization value of <0.02 μM are marked with “+++.”)”; as for `Nc1nn2cc(F)cnc2c1C(=O)Nc1cncc(F)c1N1CCC(C(=O)N2CCOCC2)CC1` [I-G-36, 2-amino-6-fluoro-N-(5-fluoro-4-(4-(morpholine-4-carbonyl)piperidin-1-yl)pyridin-3-yl)pyrazolo[1,5-a]pyrimidine-3-carboxamide], “+++ (Compounds with a Cisplatin sensitization value of <0.02 μM are marked with “+++.”)”. In the case of `Nc1nn2cc(F)cnc2c1C(=O)Nc1cncc(F)c1N1CCC(C(=O)NC2COC2)CC1` [I-G-37, 2-amino-6-fluoro-N-(5-fluoro-4-(4-(oxetan-3-ylcarbamoyl)piperidin-1-yl)pyridin-3-yl)pyrazolo[1,5-a]pyrimidine-3-carboxamide] it was “++ (Compounds with a Cisplatin sensitization value >0.02 μM but <0.2 μM are marked with “++.”)”; in that of `CN1CCN(C(=O)C2CCN(c3c(F)cncc3NC(=O)c3c(N)nn4cc(F)cnc34)CC2)CC12CC2` [I-G-38, 2-amino-6-fluoro-N-(5-fluoro-4-(4-(4-methyl-4,7-diazaspiro[2.5]octane-7-carbonyl)piperidin-1-yl)pyridin-3-yl)pyrazolo[1,5-a]pyrimidine-3-carboxamide], “+++ (Compounds with a Cisplatin sensitization value of <0.02 μM are marked with “+++.”)”. As for `COCCN(C)C(=O)C1CCN(c2c(F)cncc2NC(=O)c2c(N)nn3cc(F)cnc23)CC1` [I-G-40, 2-amino-6-fluoro-N-(5-fluoro-4-(4-((2-methoxyethyl)(methyl)carbamoyl)piperidin-1-yl)pyridin-3-yl)pyrazolo[1,5-a]pyrimidine-3-carboxamide], the “Cisplatin Sensitization Assay” value is on record as “+++ (Compounds with a Cisplatin sensitization value of <0.02 μM are marked with “+++.”)”. As to `Nc1nn2cc(F)cnc2c1C(=O)Nc1cncc(F)c1N1CCC(C(=O)N2CC(O)C2)CC1` [I-G-41, 2-amino-6-fluoro-N-(5-fluoro-4-(4-(3-hydroxyazetidine-1-carbonyl)piperidin-1-yl)pyridin-3-yl)pyrazolo[1,5-a]pyrimidine-3-carboxamide], the “Cisplatin Sensitization Assay” value is “+++ (Compounds with a Cisplatin sensitization value of <0.02 μM are marked with “+++.”)”.

Source of the values: US10787452B2 (Vertex Pharmaceuticals Incorporated, priority 2012, dated 2020).
